# Source: patent publication US20020013350A1 (priority 1998, published 2002)
# Test system: cabbage black rot bacterium (Xanthomonas campestris)
# Assay: Control test on cabbage black rot
# Format: in vivo
# Conditions: 350 ppm, cabbage sprayed four times at intervals of 7 days
# Description: Two days after the second spraying, the cabbage was inoculated with an aqueous suspension of cabbage black rot bacterium (Xanthomonas campestris) by the method of spraying. Two weeks after the final spraying, the cabbage was investigated to calculated the degree of disease occurrence according to the following criterion. In the untreated plot, the degree of disease occurrence was 44.7.
# Degree of disease occurrence=Σ(Number of hills at every degree of occurrence)×100÷(Number of hills investigated×3)
# From the degree of disease occurrence, controlling degree was calculated according to the following equation. […] [formula]
smiles,measurement,value
"Oc1cccc2cccnc12.[Cu] [8-Hydroxyquinoline-copper, 8-Hydroxyquinoline copper]",Controlling degreee (%),59%
same,Degree of disease occurrence,18.2
same,Percentage of diseased hills (%),54.5%
